Source: patent US12036301B2, “Deodorant and antiperspirant compositions” (The Procter & Gamble Company, priority 2017, dated 2024)
Structures can show the parent of a compound that is named as a salt.

Legend:
C. mucofaciens = test: Tier 1 Anaerobic MIC Assay; format: cell-based, Corynebacterium mucofaciens (clinical isolate); conditions: raw material, BHI with 1% Tween 80, 37° C. overnight
Source text: (§1) 1. Tier 1 Anaerobic MIC Assay
(§2) The data in Table 1 above was generated with the following test method. The purpose of this assay is to determine if a compound or formulation has an antimicrobial effect in vitro.
(§3) It is understood that when not specifically noted in this procedure: • a) All materials, reagents and equipment required for this procedure are of appropriate design and condition of cleanliness and/or sterility as determined by their intended use. • b) The operator has been trained in aseptic technique and has been qualified to perform the procedure and accurately interpret the results. • c) All media required for this procedure was manufactured by a reputable commercial source eg. Difco, Merck etc. and has been stored and prepared as per manufacturer's instructions. • d) All routine laboratory controls, including but not limited to, media function and growth promotion tests, verification of sterility and use of positive and negative controls are being conducted. Procedure: (all Procedures Performed in Anaerobic Chamber Except where Noted) 1. Apparatus • Incubator at 37° C.; 20-200 ul 12 channel pipette; 5-50 ul 12 channel pipette; 1250 ul 8 channel Thermo Scientific Matrix pipette; 96 well plate shaker (located in incubator); Beckman Coulter deep well cap mat #267005; Beckman Coulter deep 96 well plates #267007; Falcon 96 well tissue culture plates #353072; Vortexer; Culture tubes/caps Disposable sterile gloves; Sterile petri dishes; Standard microbiological lab equipment (sterile pipettes, syringes, tips, loops, etc.); Glass bottles/flasks for media; Autoclave; Parafilm; Spectrophotometer. 2. Media • 0.9% or 0.85% saline solution • BHI agar supplemented with 1% Tween 80 • BHI media supplemented with 1% Tween 80 3. Microbial Strains • Staphylococcus epidermidis (clinical isolate) • Corynebacterium mucofaciens (clinical isolate) 4. Test Procedure Inoculum Preparation • Prior to testing streak organisms for isolation on BHI with 1% Tween 80 plates, wrap with parafilm and place in 37° C. incubator. When isolated colonies appear remove one representative colony from each plate and place each in 5 ml of BHI with 1% Tween 80 media. Incubate at 37° C. with shaking overnight. Inoculate 20 ml BHI with 1% Tween 80 (per 96 deep well plate to be tested) with 20 ul of the overnight culture (1-1000 dilution). Master Plate Preparation • Compounds/formulations to be tested are diluted across a 96 deep well plate as shown below (for a 1% stock solution). 800 ul of 0.85% saline is added to wells A1 and B1 (as these will be the negative and positive control respectively). 800 ul each 1% stock solution+positive control are added to wells C1 through H1. 400 ul 0.85% saline are added to all other wells. 400 ul is then removed from #1 well added to the #2 well and mixed. This is then continued across the plate resulting in a 50% dilution between wells across the plate (this can be easily accomplished with an automatic 8 channel Matrix pipette set to withdraw, dispense and mix).
(§4) In row A of a 96 deep well plate pipette 180 ul of sterile BHI with 1% Tween 80 as a negative growth control. All other wells receive 180 ul of inoculum. From the master plate introduce 20 ul to the corresponding row in the test plate using an 8-channel pipette. Loaded plates are placed on a plate shaker in the 37° C. incubator and incubated overnight. The next day read the O.D. 600 on a plate reader. The MIC is the last well from the right that has no bacterial growth.

S. epidermidis = test: Tier 1 Anaerobic MIC Assay; format: cell-based, Staphylococcus epidermidis (clinical isolate); conditions: raw material, BHI with 1% Tween 80, 37° C. overnight
Source text: as §1, §2, §3, §4

[1] = test system: two key underarm bacteria strains; test: Raw material microbial inhibition, verbal summary for both strains; format: cell-based, C. mucofaciens and S. epidermidis; conditions: verbal summary of Table 2, both strains
Source text: The data in Table 1 above was generated with the following test method.
It is understood that when not specifically noted in this procedure: • a) All materials, reagents and equipment required for this procedure are of appropriate design and condition of cleanliness and/or sterility as determined by their intended use. • b) The operator has been trained in aseptic technique and has been qualified to perform the procedure and accurately interpret the results. • c) All media required for this procedure was manufactured by a reputable commercial source eg. […] Procedure: (all Procedures Performed in Anaerobic Chamber Except where Noted) 1. […] 2. […] Microbial Strains • Staphylococcus epidermidis (clinical isolate) • Corynebacterium mucofaciens (clinical isolate) 4. Test Procedure Inoculum Preparation • Prior to testing streak organisms for isolation on BHI with 1% Tween 80 plates, wrap with parafilm and place in 37° C. incubator. When isolated colonies appear remove one representative colony from each plate and place each in 5 ml of BHI with 1% Tween 80 media. Incubate at 37° C. with shaking overnight. Inoculate 20 ml BHI with 1% Tween 80 (per 96 deep well plate to be tested) with 20 ul of the overnight culture (1-1000 dilution). Master Plate Preparation • Compounds/formulations to be tested are diluted across a 96 deep well plate as shown below (for a 1% stock solution). […] 800 ul each 1% stock solution+positive control are added to wells C1 through H1. […] 400 ul is then removed from #1 well added to the #2 well and mixed. This is then continued across the plate resulting in a 50% dilution between wells across the plate (this can be easily accomplished with an automatic 8 channel Matrix pipette set to withdraw, dispense and mix).
as §4

[2] = iron binding affinity; NIST Standard Reference Database 46; cited from earlier work
[3] = intrinsic water solubility independent of pH

Structure (SMILES) | microbial inhibition concentration (MIC), C. mucofaciens (C. mucofaciens) | microbial inhibition concentration (MIC), S. epidermidis (S. epidermidis) | performance against the bacteria as raw materials [1] | Log K1 [2] | also measured
O=C([O-])[O-].[Ca+2] [Ca Carbonate, calcium carbonate] | >2500 ppm | >2500 ppm | performing moderately well | – | –
[Ca+2].[Cl-].[Cl-] [CaCl] | >50000 ppm | >50000 ppm | – | – | –
CC(C)=CCCC(C)=CC=O [Citral] | – | – | performing well | – | –
O=C(O)CC(O)(CC(=O)O)C(=O)O [Citric Acid] | – | – | – | 11 | –
CC(=O)N(O)CCCCCNC(=O)CCC(=O)N(O)CCCCCNC(=O)CCC(=O)N(O)CCCCCN [Desferrioxamine] | – | – | – | 31 | –
O=C(O)CN(CCN(CC(=O)O)CC(=O)O)CCN(CC(=O)O)CC(=O)O [Diethylenetriaminepentaacetic acid] | – | – | – | 28 | –
O=P(O)(O)CN(CCN(CP(=O)(O)O)CP(=O)(O)O)CCN(CP(=O)(O)O)CP(=O)(O)O [Diethylenetriaminepentakis(methylenephosphonic acid)] | – | – | – | 23 | –
COC(=O)CCC(=O)OC [Dimethyl Succinate] | – | – | performing well | – | –
CCCCC(CC)COCC(O)CO (stereo not shown) [Ethylhexyl glycerin] | 12500 ppm | 12500 ppm | – | – | –
C=CCc1ccc(O)c(OC)c1 [Eugenol] | – | – | performing well | – | –
CCCCCCCCC(CO)CCCCCC (stereo not shown) [Hexyl Decanol] | 6062 ppm | 3031 ppm | – | – | –
CC(C(=O)O)N(CC(=O)O)CC(=O)O (stereo not shown) [Methylglycine diacetic acid (MGDA), Methylglycine diacetic acid] | – | – | – | 16 | –
[Cl-].[Na+] [NaCl] | >25000 ppm | >25000 ppm | – | – | –
Cc1cc(CC(C)CC(C)(C)C)n(O)c(=O)c1.NCCO (stereo not shown) [Piroctone olamine, 1-Hydroxy-4-methyl-6-(2,4,4-trimethylpentyl)-2-pyridone monoethanolamine salt] | – | – | perform particularly well | – | LogWSo [3]: −3.22
C=CCCCCCCCCC(=O)N[C@@H](Cc1ccccc1)C(=O)O [Sepiwhite] | 2000 ppm | 1000 ppm | performing well | – | –
CCOC(=O)CC(O)(CC(=O)OCC)C(=O)OCC [Triethyl citrate] | – | – | performing well | – | –
